ChEMBL document CHEMBL4840347, “Design, synthesis, and biological evaluation of novel somatostatin receptor subtype-2 agonists: Optimization for potency and risk mitigation of hERG and phospholipidosis” (Bioorg Med Chem, 2021)

Legend:
[1] = Volume of distribution in rat at 1 mg/kg, iv; type: ADME, organism-based; conditions: in vivo, read-out: Vdss
[2] = Half life in rat liver microsomes measured up to 60 mins in presence of NADPH by LC-MS/MS analysis; type: ADME, Microsome
[3] = AUC (0 to 24 hrs) in rat at 3 mg/kg, po; type: ADME, organism-based; parameters: time < 24 hr, route oral, dose 3 mg/kg; conditions: in vivo
[4] = AUC (0 to 24 hrs) in rat at 1 mg/kg, iv; type: ADME, organism-based; parameters: time < 24 hr, route intravenous, dose 1 mg/kg; conditions: in vivo
[5] = Half life in rat at 10 mg/kg, po; type: ADME, organism-based; conditions: in vivo
[6] = Cmax in rat at 3 mg/kg, po; type: ADME, organism-based; parameters: route oral, dose 3 mg/kg; conditions: in vivo
[7] = AUC (0 to 24 hrs) in rat at 10 mg/kg, po; type: ADME, organism-based; parameters: time < 24 hr, route oral, dose 10 mg/kg; conditions: in vivo
[8] = Tmax in rat at 3 mg/kg, po; type: ADME, organism-based; conditions: in vivo
[9] = Permeability of compound by PAMPA assay; type: ADME; conditions: read-out: permeability
[10] = Half life in rat at 3 mg/kg, po; type: ADME, organism-based; conditions: in vivo
[11] = Total clearance in rat at 1 mg/kg, iv; type: ADME, organism-based; conditions: in vivo
[12] = Half life in rat at 1 mg/kg, iv; type: ADME, organism-based; conditions: in vivo
[13] = Tmax in rat at 10 mg/kg, po; type: ADME, organism-based; conditions: in vivo
[14] = Oral bioavailability in rat at 10 mg/kg; type: ADME, organism-based; conditions: in vivo
[15] = Oral bioavailability in rat at 3 mg/kg; type: ADME, organism-based; conditions: in vivo

Vd [1] | half-life [2] | AUC(0-t) at 24 h [3] | AUC ([4]; 24 h) | half-life [5] | Cmax [6] | AUC [7] | Tmax [8] | Papp [9] | half-life [10] | clearance [11] | half-life [12] | Tmax [13] | F [14] | bioavailability [15] | AUC(0-t) at 24 h [4] | SMILES
8.23 L/kg | > 3.33 h | 291 ng·h/mL | 686 ng·h/mL | 6.5 h | 56.6 ng/mL | 291 ng·h/mL | 0.5 h | 0.71 ×10⁻⁶ cm/s | 6.5 h | 25.1 mL/min/kg | 5.8 h | 0.5 h | 42% |  |  | COc1cc(OC)cc(-c2cncc(-c3nc4cc(C)ccc4[nH]3)c2N2CCC(N)CC2)c1
23.2 L/kg | > 3.33 h | 271 ng·h/mL |  |  | 32.1 ng/mL |  | 2.3 h | 41 ×10⁻⁶ cm/s | 5.6 h | 60.7 mL/min/kg | 6.1 h |  |  | 35.5% | 264 ng·h/mL | Cc1cc(C(=O)Nc2cncc(-c3cc(Cl)cc(Cl)c3)c2N2CCC(N)CC2)n(C)n1
